Tests used:
Assay type in all cases: in vivo
Kochia (Kochia scoparia) [1] = test: Test A preemergence
Outline: (§1)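 Preemergence directed soil spray on seeded pots, or postemergence application to plants 2–10 cm, one- to two-leaf. Solvent mixture non-phytotoxic, with surfactant. Scored ~10 d later, visually, 0–100 vs untreated.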

[2] = tested on: ryegrass, Italian (Italian ryegrass, Lolium multiflorum); test: Test A preemergence
Outline: as §1

[3] = tested on: barnyardgrass (Echinochloa crus-galli); test: Test A preemergence
Outline: as §1

[4] = tested on: ragweed (common ragweed, Ambrosia elatior); test: Test A preemergence
Outline: as §1

[5] = tested on: giant foxtail (Setaria faberii); test: Test A preemergence
Outline: as §1

[6] = tested on: pigweed (Amaranthus retroflexus); test: Test A preemergence
[7] = tested on: johnsongrass (Sorghum halepense); test: Test C preemergence; settings: for Plant response rating, Johnsongrass: scale 0 to 100, 0 no effect, 100 complete control
Outline: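 Seeds in loam-sand soil treated preemergence, or plants in peat-based medium sprayed postemergence at 2–18 cm (1- to 4-leaf stage), with compound in a non-phytotoxic solvent mixture containing surfactant. Greenhouse-held 13–15 d, then visually rated against controls on a 0–100 scale (0 = no effect, 100 = complete control); dash = not tested.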

Kochia (Kochia scoparia) [8] = test: Test A postemergence; settings: postemergence, 0 to 100 scale (0 no effect, 100 complete control)
Outline: as §1

[9] = tested on: ryegrass, Italian (Italian ryegrass, Lolium multiflorum); test: Test A postemergence; settings: postemergence, 0 to 100 scale (0 no effect, 100 complete control)
Outline: as §1

[10] = tested on: Galium (catchweed bedstraw, Galium aparine); test: Test A postemergence; settings: postemergence, 0 to 100 scale (0 no effect, 100 complete control)
Outline: as §1

[11] = tested on: barnyardgrass (Echinochloa crus-galli); test: Test A postemergence; settings: postemergence, 0 to 100 scale (0 no effect, 100 complete control)
Outline: as §1

[12] = tested on: ragweed (common ragweed, Ambrosia elatior); test: Test A postemergence; settings: postemergence, 0 to 100 scale (0 no effect, 100 complete control)
Outline: as §1

corn (Zea mays) = test: Test A postemergence; settings: postemergence, 0 to 100 scale (0 no effect, 100 complete control)
Outline: as §1

[13] = tested on: giant foxtail (Setaria faberii); test: Test A postemergence; settings: postemergence, 0 to 100 scale (0 no effect, 100 complete control)
Outline: as §1

[14] = tested on: wheat (Triticum aestivum); test: Test A postemergence; settings: postemergence, 0 to 100 scale (0 no effect, 100 complete control)
Outline: as §1

[15] = tested on: blackgrass (Alopecurus myosuroides); test: Test A postemergence; settings: postemergence, 0 to 100 scale (0 no effect, 100 complete control)
Outline: as §1

[16] = tested on: pigweed (Amaranthus retroflexus); test: Test A postemergence; settings: postemergence, 0 to 100 scale (0 no effect, 100 complete control)
Outline: as §1

rice (Oryra sativa) = test: Test B flooded paddy test; settings: Flood, 250 g ai/ha; 0 to 100 scale where 0 is no effect and 100 is complete control; 13 to 15 d
Outline: (§2)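 Plants at 2-leaf stage flooded to 3 cm above soil, with compounds applied directly to paddy water and that depth maintained. Plants kept in greenhouse 13–15 d. Visual rating versus controls on a 0 (no effect) to 100 (complete control) scale.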

[17] = tested on: ducksalad (Heteranthera limosa); test: Test B flooded paddy test; settings: Flood, 250 g ai/ha; 0 to 100 scale where 0 is no effect and 100 is complete control; 13 to 15 d
Outline: as §2

[18] = tested on: barnyardgrass (Echinochloa crus-galli); test: Test B flooded paddy test; settings: Flood, 250 g ai/ha; 0 to 100 scale where 0 is no effect and 100 is complete control; 13 to 15 d
Outline: as §2

[19] = tested on: sedge, umbrella (small-flower umbrella sedge, Cyperus difformis); test: Test B flooded paddy test; settings: Flood, 250 g ai/ha; 0 to 100 scale where 0 is no effect and 100 is complete control; 13 to 15 d
Outline: as §2

[20] = 125 g ai/ha, Preemergence, visual injury after approximately 10 d, 0 to 100 scale where 0 is no effect and 100 is complete control
[21] = 500 g ai/ha, preemergence, 0 to 100 scale, 0 = no effect, 100 = complete control
[22] = 125 g ai/ha, visual rating after approx. 10 d
[23] = 500 g ai/ha, visual injury, approx. 10 d

Cc1ccc(C2CN(C)C(=O)C2C(=O)Nc2cccc(F)c2F)cc1 (stereo not shown) [Compound 662]
Plant response rating, Kochia (Kochia (Kochia scoparia) [1]; [20]): 70 | Plant response rating, Kochia (Kochia (Kochia scoparia) [1]; [21]): 90 | Plant response rating, Ryegrass, Italian [2, 20]: 40 | Plant response rating, Ryegrass, Italian [2, 21]: 90 | Plant response rating, Barnyardgrass [3, 20]: 90 | Plant response rating, Barnyardgrass [3, 21]: 90 | Plant response rating, Ragweed [4, 20]: 80 | Plant response rating, Ragweed [4, 21]: 80 | Plant response rating, Foxtail, Giant [5, 20]: 100 | Plant response rating, Foxtail, Giant [5, 21]: 100 | Plant response rating, Pigweed [6, 20]: 70 | Plant response rating, Pigweed [6, 21]: 80 | Plant response rating (scale of 0 to 100), Johnsongrass ([7]; 31 g ai/ha, 0 is no effect, 100 is complete control): 60 | Plant response rating, Johnsongrass ([7]; 62 g ai/ha): 70 | Plant response rating, Johnsongrass ([7]; 125 g ai/ha): 90 | Plant response rating, Johnsongrass ([7]; 250 g ai/ha): 90 | Plant response rating, Kochia (Kochia (Kochia scoparia) [8]; [22]): 70 | Plant response rating, Kochia (Kochia (Kochia scoparia) [8]; [23]): 70 | Plant response rating, Ryegrass, Italian [9, 22]: 40 | Plant response rating, Ryegrass, Italian [9, 23]: 70 | Plant response rating, Galium [10, 22]: 60 | Plant response rating, Galium [10, 23]: 70 | Plant response rating, Barnyardgrass [11, 22]: 90 | Plant response rating, Barnyardgrass [11, 23]: 90 | Plant response rating, Ragweed [12, 22]: 20 | Plant response rating, Ragweed [12, 23]: 60 | Plant response rating, Corn (corn (Zea mays); [22]): 80 | Plant response rating, Corn (corn (Zea mays); [23]): 90 | Plant response rating, Foxtail, Giant [13, 22]: 90 | Plant response rating, Foxtail, Giant [13, 23]: 90 | Plant response rating, Wheat [14, 22]: 80 | Plant response rating, Wheat [14, 23]: 80 | Plant response rating, Blackgrass [15, 22]: 60 | Plant response rating, Blackgrass [15, 23]: 80 | Plant response rating, Pigweed [16, 22]: 20 | Plant response rating, Pigweed [16, 23]: 50 | Plant response rating, Rice (rice (Oryra sativa)): 20 | Plant response rating, Ducksalad [17]: 95 | Plant response rating, Barnyardgrass [18]: 80 | Plant response rating, Sedge, Umbrella [19]: 0
